Measurements published in patent publication US10314826B2, “Methods of treatment of ischemia-induced angiogenesis and arteriogenesis” (UNIVERSITY OF MARYLAND, BALTIMORE, priority 2014, dated 2019).
Blank lines part the entries; values can stand above or below the compound they belong to.

Legend:
endothelial cells [1] = conditions: report of Chavala et al [26]; cited from earlier work
VSMC = conditions: report of Chavala et al [26]; cited from earlier work
endothelial cells [2] = conditions: report of Chavala et al [26]; cited from earlier work; remark: listed apart in the source
p53 [3] = conditions: report of Chavala et al [26]; cited from earlier work
p53 [4] = target: T1, p53 (Mus musculus, UniProt P02340); test: Diabetic ischemia model of hindlimb ischemia; format: in vivo; set-up: relieving ischemia in a clinically relevant diabetic ischemia model of hindlimb ischemia; from tissue; host or cells: animal model of diabetic hindlimb ischemia (not described further); conditions: clinically relevant diabetic ischemia model of hindlimb ischemia
T1 sequence (P02340 whole entry): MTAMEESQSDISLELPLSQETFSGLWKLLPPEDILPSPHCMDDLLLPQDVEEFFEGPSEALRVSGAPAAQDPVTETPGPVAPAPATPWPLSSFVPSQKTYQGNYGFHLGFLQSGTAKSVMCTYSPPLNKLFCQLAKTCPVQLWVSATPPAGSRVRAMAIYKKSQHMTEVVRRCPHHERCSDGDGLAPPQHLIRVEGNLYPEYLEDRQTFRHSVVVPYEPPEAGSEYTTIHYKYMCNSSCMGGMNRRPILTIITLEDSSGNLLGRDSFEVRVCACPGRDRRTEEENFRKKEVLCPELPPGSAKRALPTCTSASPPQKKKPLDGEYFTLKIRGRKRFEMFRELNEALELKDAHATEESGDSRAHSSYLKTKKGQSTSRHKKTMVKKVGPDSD

p53 [5] = test: Blood flow restoration after hindlimb ischemia by LDPI, p53-/- mice (specificity control); format: in vivo, mouse; conditions: 2 weeks after hindlimb ischemia
Procedure: (§1) All experiments and animal husbandry were performed with approval from the University of California, San Francisco and University of Maryland Institutional Animal Care and Use Committees. Wild-type (p53^+/+), p53-null (p53^−/−), and p53^−/+ heterozygoytes were maintained on a C57Bl/6 background. […] For pharmacological modulation of p53 in vivo, quinacrine or vehicle (sterile water) was administered intraperitoneally at 10 mg/kg/day, beginning 5 days prior to surgery, and continued daily post-operatively until the experimental endpoint; PFT-α or vehicle (10% DMSO) was administered intraperitoneally at 2 mg/kg/day every other day beginning two days prior to surgery and continued until the experimental end-point. […]
(§2) Restoration of blood flow after hindlimb ischemia was assessed by laser Doppler perfusion imaging (LDPI) of the hindlimb paws using a PeriScan PIM 3 System (Perimed AB; Stockholm, Sweden) as previously described. Three successive readings were averaged and expressed as an ischemic index (ischemic paw over contralateral paw). For mesenteric artery ligation, blood flow was measured in the HF or CTL artery as volume-flow with a nanoprobe secured around the artery (0.5 mm nanoprobe, Transonic Systems Inc., Ithaca, N.Y.) in anesthetized mice. Flow was averaged over ten minutes and expressed as an arterial index (HF artery over CTL artery).

p53 [6] = target: T1, p53; test: Collateral artery development (arteriogenesis, gracilis artery index) after hindlimb ischemia; format: in vivo; set-up: from tissue; host or cells: live C57Bl/6 p53+/+ mice (hindlimb muscle and arteries); conditions: p53+/+ mice, vs vehicle
Procedure: All experiments and animal husbandry were performed with approval from the University of California, San Francisco and University of Maryland Institutional Animal Care and Use Committees. Wild-type (p53^+/+), p53-null (p53^−/−), and p53^−/+ heterozygoytes were maintained on a C57Bl/6 background. […] For pharmacological modulation of p53 in vivo, quinacrine or vehicle (sterile water) was administered intraperitoneally at 10 mg/kg/day, beginning 5 days prior to surgery, and continued daily post-operatively until the experimental endpoint; PFT-α or vehicle (10% DMSO) was administered intraperitoneally at 2 mg/kg/day every other day beginning two days prior to surgery and continued until the experimental end-point. Mesenteric artery ligation was performed on 8- to 12-week old male wild-type and p53^−/− mice as described previously with modifications. A laparotomy was performed and the small intestine exposed and suffused with warmed saline. […] The control artery (CTL) was considered a straight artery three arteries from the site of ligation. […]
Independent experiments with separate animal cohorts for capillary and larger artery analysis were performed. […] Vascular regions were quantified individually and normalized to the contralateral control muscle. […] Two 5 μm sections in two separate areas 0.5 mm apart were measured and the results averaged. […]

p53 [7] = target: T1, p53; test: Capillary density in ischemic tibialis anterior muscle after hindlimb ischemia; format: in vivo; set-up: from tissue; host or cells: live C57Bl/6 p53+/+ mice (hindlimb muscle and arteries); conditions: p53+/+ mice, vs vehicle
VEGF = test: Immunoblot of VEGF protein in ischemic tissue after hindlimb ischemia; format: in vivo, mouse
Procedure: (§3) All experiments and animal husbandry were performed with approval from the University of California, San Francisco and University of Maryland Institutional Animal Care and Use Committees. Wild-type (p53^+/+), p53-null (p53^−/−), and p53^−/+ heterozygoytes were maintained on a C57Bl/6 background. […]
(§4) TA tissue from ischemic and control limbs from were harvested and pulverized in liquid nitrogen. For whole cell lysates, pulverized tissue was incubated in a modified RIPA buffer (50 mM Tris-HCl, pH 7.4; 1% SDS; 1% NP-40; 0.25% sodium deoxycholate; 1 mM PMSF; 1 mM DTT; Complete Mini, EDTA-free protease inhibitor cocktail and PhosStop phosphatase inhibitor tablets (Roche Applied Science; Indianapolis, Ind.), strained, and sonicated 3 times for 10 seconds. Samples were centrifuged at 10,000 G for ten minutes at 4 C, and the supernatant preserved. Protein concentration was measured using a BCA Protein Assay Kit. A total of 20 μg of protein was resolved on a 4-12% Bis-Tris gradiant polyacrylamide gel (Invitrogen; Carlsbad, Calif.) under reduced conditions and transferred to a PVDF membrane (Amersham Biosciences; Pittsburgh, Pa.). […]

HIF-1α = test: Immunoblot of HIF-1α protein in ischemic tissue after hindlimb ischemia; format: in vivo, mouse
Procedure: as §3, §4

p53 [8] = target: T1, p53; test: Blood flow restoration after hindlimb ischemia by laser Doppler perfusion imaging (LDPI), p53+/+ mice; format: in vivo; set-up: from tissue; host or cells: live C57Bl/6 p53+/+ mice (hindlimb muscle and arteries); conditions: 2 weeks after hindlimb ischemia, vs vehicle
Procedure: as §1, §2

aortic rings = test: Endothelial outgrowth aortic ring assay under hypoxic conditions; format: cell-based, mouse; conditions: 20 μM quinacrine, vs vehicle-treated controls
[9] = PFT-α 2 mg/kg/day every other day intraperitoneally
[10] = PFT-α-treated mice, 3 days after surgery
[11] = quinacrine 10 mg/kg/day intraperitoneally
[12] = quinacrine-treated mice, 7 days after hindlimb ischemia

Compound: COc1ccc(C2=N[C@@H](c3ccc(Cl)cc3)[C@@H](c3ccc(Cl)cc3)N2C(=O)N2CCNC(=O)C2)c(OC(C)C)c1 [Nutlin-3]
proliferation of endothelial cells (endothelial cells [1]): inhibited proliferation | proliferation of VSMC (VSMC): inhibited proliferation | apoptosis in endothelial cells (endothelial cells [2]): induced apoptosis | pathologic retinal angiogenesis (p53 [3]): inhibit pathologic retinal angiogenesis

Compound: Cc1ccc(C(=O)Cn2c3c(sc2=N)CCCC3)cc1 [PFT-α, pifithrin-α]
arteriogenesis and relief of ischemia (p53 [4]): highly effective at increasing arteriogenesis and relieving ischemia | blood flow restoration after ischemia in p53-/- mice (LDPI) (p53 [5]; PFT-α): had no effect on blood flow restoration | collateral vessel formation (gracilis artery index) (p53 [6]; PFT-α 2 mg/kg/day every other day intraperitoneally, 2 weeks after hindlimb ischemia): collateral vessel formation increased | capillary growth (capillary counts) (p53 [7]; [9]): No difference in capillary growth was detected | VEGF protein levels (VEGF; [10]): increase | HIF-1α protein levels (HIF-1α; [10]): increase | blood flow restoration after ischemia (LDPI) (p53 [8]; [9]): enhanced blood flow restoration

collateral development (larger vessel growth) (p53 [6]; quinacrine 10 mg/kg/day intraperitoneally, hindlimb ischemia): did impair collateral development | capillary density (p53 [7]; [11]): did not affect capillary density
Compound: CCN(CC)CCCC(C)Nc1c2ccc(Cl)cc2nc2ccc(OC)cc12 (stereo not drawn) [quinacrine]
blood flow after ischemia in p53-/- mice (LDPI) (p53 [5]; quinacrine): had no effect on blood flow | endothelial outgrowth from aortic rings (aortic rings): significantly inhibited endothelial outgrowth | VEGF protein levels (VEGF; [12]): suppressed | HIF-1α protein levels (HIF-1α; [12]): suppressed | blood flow after ischemia (LDPI) (p53 [8]; [11]): significantly attenuated the improvement in blood flow
